The values that follow come from patent US20220280593A1, “METHODS FOR […] CORONARY ARTERY BYPASS GRAFT PROCEDURE” (Stealth BioTherapeutics Inc., priority 2009, published 2022).

Series [1] relates to mu-opioid receptor. Conditions: cited from earlier work.
Series [2] deals with several mammalian cell types. The following applies: energy-independent manner; Zhao et al., 2003; cited from earlier work.
Series [3] relates to wild type mice. The following applies: treatment at 0, 6, 24 and 48 hours after 30 min occlusion; U.S. Patent Publication No. 20070129306; cited from earlier work.
Series [4] deals with animal model of ARI. Conditions: cited from earlier work.
Series [5] in a line: Stability of the drug substance. In kind it is physicochemical. How it is done:
Study Drug. D-Arg-2′6′-Dmt-Lys-Phe-NH2 is a small peptide (CAS No. 736992-21-5). Its molecular weight is 639.8 (free base). […] The drug substance will be provided as a lyophilized powder in sterile glass vials. Each vial will be reconstituted with 10 mL of sterile D5W by the unblinded pharmacist at each site.

The test system of series [6] is mitochondria. Conditions: cited from earlier work.
Series [7] concerns New Zealand white rabbits. The experiment in a line: Rabbit model of acute myocardial ischemia and reperfusion (30 min ischemia, 180 min reperfusion), infarct size by histomorphometry. In kind it is in vivo. The protocol:
New Zealand white rabbits were used in this study. The rabbits were males and >10 weeks in age. Environmental controls in the animal rooms were set to maintain temperatures of 61° to 72° F. and relative humidity between 30% and 70%. Room temperature and humidity were recorded hourly, and monitored daily. There were approximately 10-15 air exchanges per hour in the animal rooms. Photoperiod was 12-hr light/12-hr dark (via fluorescent lighting) with exceptions as necessary to accommodate dosing and data collection. Routine daily observations were performed. Harlan Teklad, Certified Diet (2030C), rabbit diet was provided approximately 180 grams per day from arrival to the facility. In addition, fresh fruits and vegetables were given to the rabbit 3 times a week.
The peptide D-Arg-2′6′-Dmt-Lys-Phe-NH2 (sterile lyophilized powder) was used as the test article. Dosing solutions were formulated at no more than 1 mg/ml, and were delivered via continuous infusion (IV) at a constant rate (e.g., 50 μL/kg/min). Normal saline (0.9% NaCl) was used as a control.
The test/vehicle articles were given intravenously, under general anesthesia, in order to mimic the expected route of administration in the clinical setting of AMI and PTCA. Intravenous infusion was administered via a peripheral vein using a Kd Scientific infusion pump (Holliston, MA 01746) at a constant volume (e.g., 50 μL/kg/min).
The study followed a predetermined placebo and sham controlled design. In short, 10-20 healthy, acclimatized, male rabbits were assigned to one of three study arms (approximately 2-10 animals per group). Arm A (n=10, CTRL/PLAC) includes animals treated with vehicle (vehicle; VEH, IV); Arm B (n=10, treated) includes animals treated with peptide; Arm C (n=2, SHAM) includes sham-operated time-controls treated with vehicle (vehicle; VEH, IV) or peptide.
In all cases, treatments were started approximately 10 min after the onset of a 30 min ischemic insult (coronary occlusion) and continued for up to 3 h following reperfusion. In all cases, cardiovascular function was monitored both prior to and during ischemia, as well as for up to 180 min (3 h) post-reperfusion. The experiments were terminated 3 h post-reperfusion (end of study); irreversible myocardial injury (infarct size by histomorphometery) at this time-point was evaluated, and was the primary-end-point of the study.
Following hemodynamic stabilization and baseline measurements, the animals were subjected to an acute 30 min ischemic insult by tightening of the LAD/LCX coronary artery snares. […]
Histopathology/Histomorphometery. At the completion of the protocol, irreversible myocardial injury (i.e., infarction) resulting from the I/R insult was evaluated. […]

In series [8] the test system is mitochondria. Conditions: cited from earlier work. The source holds these as a separate data set.
Where [9] appears, read: 45 min ischemia and 24 h reperfusion.
The mark [10] stands for this setting: IV continuous infusion from 10 min into 30 min ischemia through 180 min reperfusion, n = 10, p < 0.05 vs placebo.

Entries after “also recorded” stand apart in the source; their conditions may differ. Non-standard residues stand in square brackets, D forms with d. No end group written: not given here.

Consider F[dR]FK-NH2, for which the “mu-opioid receptor agonist activity” value in series [1] is “does not have mu-opioid receptor agonist activity”.
For the substance Tyr-D-Arg-Phe-Lys-NH2, the “mu-opioid receptor agonist activity” value in series [1] is “has mu-opioid receptor agonist activity”.
For the substance 2′,6′-Dmt-D-Arg-Phe-Lys-NH2, the “penetration of the plasma membrane” value in series [2] is recorded as “readily penetrates”.
Take D-Arg-2′,6′-Dmt-Lys-Phe-NH2: in series [3], the “hemispheric swelling compared to saline controls” value is “significant reduction” and the “infarct volume compared to saline controls” value is “significant reduction”. In addition, in series [4] (setting [9]), the histopathological score result was “significantly improved” and the “rate of ATP production after reperfusion” value was “significantly increased”. Further, the “incidence of ARI caused by ischemia-reperfusion” value in series [4] (U.S. Patent Publication No. 20090221514) was “effective in reducing”. Besides, in series [4] (animal model of ARI), the “interstitial fibrosis, tubular apoptosis, macrophage infiltration and tubular proliferation” value is “effective in reducing”. Further, in series [5], the resistance to oxidation entry is recorded as “resistant to oxidation” and the “temperature up to which stable” value was “up to 40 °C”. The stability to light result in series [5] (powder or liquid form) is “stable to light”. For the same substance, in series [6], the “concentration in the mitochondrial pellet relative to extracellular fluid” value is on record as “approximately 5000 fold” and the “intracellular concentration relative to extracellular fluid” value is “six”. In series [1], the “mu-opioid receptor agonist activity” value is given as “does not have mu-opioid receptor agonist activity”. The “myocardial infarct size compared to the control” value in series [7] (30 min ischemia, infusion continued 180 min after reperfusion, listed as peptide) was “decreased infarct size; also recorded: able to reduce myocardial infarct size”. For the same substance, in series [7] (setting [10]), the “Myocardial Area IA/AR (infarcted area / area at risk)” value was 24.7 ± 4.7% and the “Myocardial Area IA/LV (infarcted area / left ventricular area)” value stood at 16.2 ± 3.4%. For the same substance, the myocardial salvage result in series [7] (treatment for less than 3 hours after reperfusion, i.e., 30 min, data not shown) is listed as “comparable myocardial salvage”. Moreover, in series [8], the “adenosine triphosphate (ATP) levels” value is “maintaining”, the “electron transfer within the mitochondrial electron transport chain” value is listed as “facilitating”, the “loss of mitochondrial membrane potential” value is listed as “preventing” and the “mitochondrial respiration (oxygen consumption)” value is “maintaining”. In series [8], the “mitochondrial swelling (mPTP opening)” value is given as “preventing”, the “reactive oxygen species (ROS)” value is on record as “scavenging” and the “release of cytochrome c” value is “preventing”.
